Reference: publication PMC6403271, “Characterization, mechanism of action and optimization of activity of a novel peptide-peptoid hybrid against bacterial pathogens involved in canine skin infections” (Scientific Reports, 2019)
Square brackets hold non-standard residues; d marks the D form. Ends that are not written are not given here. Peptide text beside a SMILES is read from it. d1Nal = N[C@H](Cc1cccc2ccccc12)C(=O)O

What was measured:
[1] = tested on: cell wall synthesis in MRSP E104; assay: Macromolecule biosynthesis rate, cell wall (3H-glucosamine); type: cell-based, Staphylococcus pseudintermedius; conditions: MRSP E104, 1.25 µg/ml, 20 min
Method: (§1) Macromolecule biosynthesis rate was measured in MRSP E104 following a protocol adapted from Ling et al.[65]. Briefly, E104 overnight culture was sub-cultured 1:100 in MHB II and grown up to OD 0.2 at 600 nm. Cells were pelleted down by centrifugation and resuspended in fresh medium followed by incubation for 20 min with B1 or nisin at 1.5 µg/ml and 1.25 µg/ml, respectively, and radiolabeled precursor: (50µCi) 3H-Thymidine (PerkinElmer) and (5µCi) 3H-glucosamine hydrochloride per ml for DNA and cell wall, respectively. A positive control without antimicrobial was maintained. After incubation, samples were precipitated with equal volume of cold 30% TCA (Sigma) on ice. Precipitates were filtered on a membrane filter and subsequently subjected to two washes of cold 15% TCA and two washes of cold water using vacuum manifold. Subsequently, filters were air dried overnight and then transferred to 10 ml scintillation vials. Finally, scintillation fluid (3 ml) was added to each vial and ^3H count was taken in Beckman Coulter LS6500 liquid scintillation counter for one minute. The radioactive counts of the control samples were considered to have 100% precursor incorporation and macromolecule synthesis. The percentage rates of the antimicrobial-exposed samples were calculated accordingly. Each experiment was performed with replicates and the average rates of incorporation were plotted.

[2] = tested on: membrane potential of MRSP E104; assay: DiSC3(5) fluorescence-based membrane potential study; type: cell-based, Staphylococcus pseudintermedius; conditions: MRSP E104, nisin treatment
Method: Freshly sub-cultured E104 cells were labelled with 1 µM 3,3-Dipropylthiadicarbocyanine iodide [DiSC3(5)] (Sigma) in MHB II. The fluorescence spectra of labelled cells were plotted in the LS50B luminescence spectrometer (PerkinElmer) at excitation/emission wavelengths 546 nm/573 nm using time drive application of FLWINLAB software. After reading an initial stable emission spectra of DiSC3(5), labelled cells were treated with B1 or nisin or protonophore CCCP at 1, 1.5 and 1.25 µg/ml, respectively and the change of fluorescence over time was recorded. The increment of DiSC3(5) fluorescence upon addition of antimicrobials or CCCP (FUafter-treatment – FUbefore-treatment) was plotted. This experiment was performed twice and each time with two technical replicates.

[3] = tested on: DNA synthesis in MRSP E104; assay: Macromolecule biosynthesis rate, DNA (3H-Thymidine); type: cell-based, Staphylococcus pseudintermedius; conditions: MRSP E104, 1.25 µg/ml, 20 min
Method: as §1

MRSP E104 = assay: High-throughput growth curves (BioScreen); type: cell-based, Staphylococcus pseudintermedius; conditions: growth curve analysis
Method: The effects of B1 on the growth of a reference MRSP strain (ST71, E104) were evaluated using BioScreen (Oy Growth Curves Ab LTd, Finland). A well characterized antimicrobial peptide, Nisin, was used as a positive control. […] The OD600 of each micro-culture was measured and recorded every 15 min after a 5 second pause of shaking in automatic mode. The recorded ODs were plotted against time to prepare the growth curves. The assay was performed with technical and biological replicates, and one representative result was presented.

MRSP C22963 = type: cell-based, Staphylococcus pseudintermedius; conditions: 18 h
Method: (§2) Activity of B1 was tested on 50P. aeruginosa isolates and 57S. pseudintermedius isolates (including 7 MRSP) that had been isolated in the diagnostic laboratory Sund Vet Diagnostik (University of Copenhagen) from various infections in dogs between 2009 and 2011. Representative MRSP (C22963), MSSA, and P. aeruginosa (26314) were used for testing the first set of B1 analogues.
(§3) MIC determination was performed by broth microdilution according to the Clinical and Laboratory Standard Institute (CLSI, M31-A3, 2008)[62]. In brief, each bacterial strain was diluted to concentration of 5 × 10^5 CFU/mL in Mueller Hinton broth II (MHB II) media (Oxoid) and added to a two-fold serial dilution of peptides and peptide-peptoid hybrids concentrations ranging from 1 to 64 µg/ml in 96-well plates (Nunc Internationals, Rochester, NY). The MICs were determined as a lowest concentration showing no visible growth after incubation for 18 hours at 37 °C. Experiments were performed in triplicates on two different days.

P. aeruginosa (26314) = type: cell-based, Pseudomonas aeruginosa; conditions: 26314, 18 h
Method: Activity of B1 was tested on […]. aeruginosa isolates and […]. pseudintermedius isolates (including 7 MRSP) that had been isolated in the diagnostic laboratory Sund Vet Diagnostik (University of Copenhagen) from various infections in dogs between 2009 and 2011. Representative […], and P. aeruginosa (26314) were used for testing the first set of B1 analogues. For antibacterial spectrum the following strains were used: Corynebacterium auriscanis, 31551, (54 C6, dog, ear, 2013); Enterococcus faecalis, 27404, (17 C7, dog, wound, 2011); Enterococcus faecium, 30951, (24 C1, dog, ear, 2013); Streptococcus canis, 26740-1, (14 H1, dog, ear, 2010); Staphylococcus aureus, 27266, (16 G9, dog, skin, 2010); Staphylococcus aureus, 27266, (16 G9, dog, skin, 2010); Staphylococcus pseudintermedius 22963, (3 B9, dog, 2007). Acinetobacter baumannii, 27065, (16 D1, dog, wound, 2010); E. coli, 30235, 23 A6, dog, wound, 2012; Klebsiella pneumoniae, 26233, (11 H5, dog, wound, 2010); Pasteurella canis, 31096, (24 C8, dog, skin, 2013); Proteus mirabilis, 25178, (9 A4, dog, ear, 2009); Pseudomonas aeruginosa 26314, 12 C5, dog, urine, 2010). MIC determination was performed by broth microdilution according to the Clinical and Laboratory Standard Institute (CLSI, […]-A3, 2008)[62]. In brief, each bacterial strain was diluted to concentration of 5 × 10^5 CFU/mL in Mueller Hinton broth II (MHB II) media (Oxoid) and added to a two-fold serial dilution of peptides and peptide-peptoid hybrids concentrations ranging from 1 to 64 μg/ml in 96-well plates (Nunc Internationals, Rochester, NY). The MICs were determined as a lowest concentration showing no visible growth after incubation for 18 hours at 37 °C. Experiments were performed in triplicates on two different days.

human red blood cells = type: cell-based
Method: (§4) Briefly, two-fold serial dilutions (2.35 to 150 μM) of compounds in phosphate buffer saline (PBS) were mixed with equal volume of 0.5% v/v suspension of fresh human red blood cells (RBC) in the same buffer. After 1 h incubation at 37 °C, plates were centrifuged and aliquots of the supernatants were transferred to clear 96-well plates. Absorbance at 414 nm was measured and normalized using a negative (PBS, 0%) and a positive (melittin, 100%) control. The EC10 and EC50 are concentrations at which 10% and 50% of RBC were lysed, respectively, as interpolated graphically by the y-axis intersection of the plotted data.

[4] = type: cell-based, human; conditions: human
Method: as §4

MSSA (ATCC 29213) = type: cell-based, Staphylococcus aureus; conditions: ATCC 29213, 18 h
Method: as §2, §3

Molecule	inhibition of cell wall synthesis [1] [%]	membrane potential, DiSC3(5) fluorescence emission [2]	inhibition of DNA synthesis [3] [%]	MIC concentration (cell lysis) MRSP E104 (MRSP E104) [µg/mL]	Minimum Inhibitory Concentration MRSP C22963 (MRSP C22963) [µg/mL]	Minimum Inhibitory Concentration P. aeruginosa (26314) (P. aeruginosa (26314)) [µg/mL]	Haemolysis EC10 (human red blood cells) [µM]	EC50 (human red blood cells; red cells of human, 1 h) [µM]	hemolysis at 1 h, 150 µM [4] [%]	Minimum Inhibitory Concentration MSSA (ATCC 29213) (MSSA (ATCC 29213)) [µg/mL]
nisin (ITSISLCTPGCKTGALMGCNMKTATCHCSIHVSK; not fully specified (some residues, bridges); cysteine pairing not given here; also: lantibiotic nisin-A (post-translational modifications not given here); UniProt P13068 24-57, looked up) [well-characterized antimicrobial peptide used as control, reference compound]	60	no fluorescence increment	50	5	–	–	–	–	–	–
CC(C)C[C@@H](NC(=O)[C@H](CCCCN)NC(=O)[C@@H](N)CCCCN)C(=O)N[C@@H](CCCCN)C(=O)N[C@H](Cc1cccc2ccccc12)C(=O)N[C@H](Cc1ccccc1)C(=O)N[C@H](Cc1cccc2ccccc12)C(N)=O [Compound 14, Lys-Lys-leu-Lys-(1-Nal)ala-phe-(1-Nal)ala] (H-KK[dL]K[d1Nal][dF][d1Nal]-NH2; N-terminus assumed)	–	–	–	–	4 to 8	16 to 32	28	128	58	16
